The record followed here is patent US6869946B2, “Substituted azabicyclic moieties for the treatment of disease” (Pfizer Inc, priority 2001, dated 2005).

The target in this test is T1, α7 nAChR (Rattus norvegicus, UniProt Q05941).
T1 construct: brains (whole brain minus cerebellum) are dissected quickly, weighed and homogenized; from tissue; host or cells: rat brain (whole brain minus cerebellum) membranes
Kind of test: [3H]-MLA competition binding assay in rat brain membranes. The note with it: inhibition of [3H]-MLA binding, rat brain homogenate (whole brain minus cerebellum), Cheng-Prusoff. As to the method: Materials and Methods for Identifying Binding Constants:
Membrane Preparation. Male Sprague-Dawley rats (300-350 g) are sacrificed by decapitation and the brains (whole brain minus cerebellum) are dissected quickly, weighed and homogenized in 9 volumes/g wet weight of ice-cold 0.32 M sucrose using a rotating pestle on setting 50 (10 up and down strokes). The homogenate is centrifuged at 1,000× g for 10 minutes at 4° C. The supernatant is collected and centrifuged at 20,000× g for 20 minutes at 4° C. The resulting pellet is resuspended to a protein concentration of 1-8 mg/mL. Aliquots of 5 mL homogenate are frozen at −80° C. until needed for the assay. On the day of the assay, aliquots are thawed at room temperature and diluted with Kreb's—20 mM Hepes buffer pH 7.0 (at room temperature) containing 4.16 mM NaHCO3, 0.44 mM KH2PO4, 127 MM NaCl, 5.36 mM KCl, 1.26 mM CaCl2, and 0.98 mM MgCl2, so that 25-150 μg protein are added per test tube. Protein concentration is determined by the Bradford method (Bradford, M. M., Anal. Biochem., 72, 248-254, 1976) using bovine serum albumin as the standard.
Binding Assay. For saturation studies, 0.4 mL homogenate are added to test tubes containing buffer and various concentrations of radioligand, and are incubated in a final volume of 0.5 mL for 1 hour at 25° C. Nonspecific binding was determined in tissues incubated in parallel in the presence of 1 μM MLA, added before the radioligand. In competition studies, drugs are added in increasing concentrations to the test tubes before addition of approximately 3.0 to 4.0 nM [^3H]-MLA. The incubations are terminated by rapid vacuum filtration through Whatman GF/B glass filter paper mounted on a 48 well Brandel cell harvester. Filters are pre-soaked in 50 mM Tris HCl pH 7.0-0.05% polyethylenimine. The filters are rapidly washed two times with 5 mL aliquots of cold 0.9% saline and then counted for radioactivity by liquid scintillation spectrometry.
Data Analysis. In competition binding studies, the inhibition constant (Ki) was calculated from the concentration dependent inhibition of [^3H]-MLA binding obtained from non-linear regression fitting program according to the Cheng-Prusoff equation (Cheng, Y. C. and Prussoff, W. H., Biochem. Pharmacol., 22, p. 3099-3108, 1973). Hill coefficients were obtained using non-linear regression (GraphPad Prism sigmoidal dose-response with variable slope).

T1 sequence (Q05941 23-502): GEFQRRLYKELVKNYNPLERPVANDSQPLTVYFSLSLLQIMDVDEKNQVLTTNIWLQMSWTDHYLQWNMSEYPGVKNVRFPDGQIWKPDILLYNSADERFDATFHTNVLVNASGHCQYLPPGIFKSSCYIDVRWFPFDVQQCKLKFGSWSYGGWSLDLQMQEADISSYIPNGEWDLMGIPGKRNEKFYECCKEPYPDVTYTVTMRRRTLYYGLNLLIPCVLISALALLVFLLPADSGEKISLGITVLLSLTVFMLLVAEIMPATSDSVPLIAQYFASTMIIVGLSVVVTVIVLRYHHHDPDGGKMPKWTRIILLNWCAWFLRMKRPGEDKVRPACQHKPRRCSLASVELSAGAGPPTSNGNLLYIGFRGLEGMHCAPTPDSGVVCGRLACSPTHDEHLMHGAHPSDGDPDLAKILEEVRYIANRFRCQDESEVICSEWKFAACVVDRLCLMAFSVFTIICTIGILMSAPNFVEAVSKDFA

The term Ki denotes a dissociation constant, usually derived from enzyme kinetics or from competition with a known ligand. A higher Ki goes with lower affinity. Compound `O=C(NC1CC2CCN(C2)C1)c1ccc(Cl)cc1` (racemic) [Example 3 (racemic), Exo-N-[1-azabicyclo[3.2.1]oct-3-yl]-4-chlorobenzamide 4-methylbenzenesulfonate] came in with an inhibition constant Ki of 115 nM.

Compound `O=C(N[C@H]1CN2CCC1CC2)c1ccc(Cl)cc1` [Example 1(a)] had a Ki of 26 nM.

On to `C[C@H]1[C@H](NC(=O)c2ccc(Cl)cc2)C2CCN1CC2` [Example 1(b)(i), 4-chloro-N-[(2S,3R)-2-methyl-1-azabicyclo[2.2.2]oct-3-yl]benzamide 4-methylbenzenesulfonate], for which the Ki was in the range of 65 to 140 nM.

The compound `O=C(N[C@@H]1C[C@H]2CCN(C2)C1)c1ccc(Cl)cc1` [Example 3 (3R, 5R), (3R,5R)-N-(1-azabicyclo[3.2.1]oct-3-yl)-4-chlorobenzamide 4-methylbenzenesulfonate] gave a Ki of 18 nM.

Regarding `O=C(N[C@H]1C[C@@H]2CCN(C2)C1)c1ccc(Cl)cc1` [Example 3 (3S, 5S), (3S,5S)-N-(1-azabicyclo[3.2.1]oct-3-yl)-4-chlorobenzamide 4-methylbenzenesulfonate], the Ki is more than 1000 nM.
